Results taken from patent US11225503B2, “Crystobactamides” (HELMHOLTZ-ZENTRUM FÜR INFEKTIONSFORSCHUNG GMBH, priority 2013, dated 2022).
Converted amounts (≈) assume the structure as drawn.

Tests used:
[1] = test system: E. coli strain WT-4 M2.1 (parC mutation); experiment: Susceptibility of mutant E. coli strains, MIC; type: cell-based; settings: Escherichia coli
Description: (§1) Cystobactamides were screened using a panel of E. coli strains with typical mutations in gyrA and parC genes (Table 11).
(§2) Bacterial wildtype strains used in susceptibility assays were either part of our strain collection or purchased from the German Collection of Microorganisms and Cell Cultures (DSMZ) or from the American Type Culture Collection (ATCC). E. coli strain WT^[6] and E. coli mutants were kindly provided by Prof. Dr. P. Heisig, Pharmaceutical Biology and Microbiology, University of Hamburg.
(§3) MIC values were determined in microdilution assays. Overnight cultures were diluted in the appropriate growth medium to achieve an inoculum of 10^4-10^6 cfu/mL. Yeasts were grown in Myc medium (1% phytone peptone, 1% glucose, 50 mM HEPES, pH 7.0), S. pneumonia and E. faecalis in tryptic soy broth (TSB: 1.7% peptone casein, 0.3% peptone soymeal, 0.25% glucose, 0.5% NaCl, 0.25% K2HPO4; pH 7.3); M. smegmatis in Middlebrook 7H9 medium supplemented with 10% Middlebrook ADC enrichment and 2 ml/l glycerol). All other listed bacteria were grown in Müller-Hinton broth (0.2% beef infusion solids, 1.75% casein hydrolysate, 0.15% starch, pH 7.4). Cystobactamides and reference drugs were added directly to the cultures in sterile 96-well plates as duplicates and serial dilutions were prepared. Microorganisms were grown on a microplate shaker (750 rpm, 30-37° C., 18-48 h), except S. pneumonia, which was grown at non-shaking conditions (37° C., 5% CO2, 18 h). Growth inhibition was assessed by visual inspection and the MIC was defined as the lowest concentration of compound that inhibited visible growth.

[2] = test system: E. coli WT; experiment: Susceptibility of mutant E. coli strains, MIC; type: cell-based; settings: Escherichia coli
Description: as §1
High-level quinolone resistance often results from a combination of several target site mutations and altered efflux mechanisms. […] This, in turn, leads to overproduction of MarA and AcrAB and overexpression of the AcrAB efflux pump is associated with the MAR (multiple antibiotic resistance) phenotype.^[5]
as §2, §3

[3] = target: T1, H. sapiens topoisomerase I (Homo sapiens, UniProt P11387); experiment: Topoisomerase I relaxation (inhibition) assay; type: biochemical
T1 construct: purchased Inspiralis (Norwich, UK)
T1 sequence (P11387 1-765): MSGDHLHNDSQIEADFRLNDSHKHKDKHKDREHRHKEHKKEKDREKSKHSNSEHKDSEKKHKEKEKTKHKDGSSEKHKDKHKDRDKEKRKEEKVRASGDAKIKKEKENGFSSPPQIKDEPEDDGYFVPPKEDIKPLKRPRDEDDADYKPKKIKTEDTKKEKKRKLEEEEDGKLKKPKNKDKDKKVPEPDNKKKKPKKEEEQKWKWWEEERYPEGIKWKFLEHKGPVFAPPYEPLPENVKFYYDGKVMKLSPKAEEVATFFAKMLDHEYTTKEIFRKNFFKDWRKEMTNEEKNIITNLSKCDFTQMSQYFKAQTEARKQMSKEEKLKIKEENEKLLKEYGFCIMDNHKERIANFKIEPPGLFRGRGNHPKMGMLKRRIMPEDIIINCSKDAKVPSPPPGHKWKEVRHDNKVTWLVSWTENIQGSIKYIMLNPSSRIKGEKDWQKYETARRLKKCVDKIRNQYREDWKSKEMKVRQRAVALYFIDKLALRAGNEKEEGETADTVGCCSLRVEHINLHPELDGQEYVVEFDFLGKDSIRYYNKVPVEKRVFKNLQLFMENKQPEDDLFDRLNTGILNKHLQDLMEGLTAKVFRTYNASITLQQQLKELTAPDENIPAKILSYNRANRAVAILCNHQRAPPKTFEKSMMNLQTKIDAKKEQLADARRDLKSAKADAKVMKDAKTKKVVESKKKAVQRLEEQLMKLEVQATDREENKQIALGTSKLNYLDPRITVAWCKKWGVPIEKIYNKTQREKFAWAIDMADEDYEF
Experimental: Aside the ATP-dependent type IIa topoisomerases like E. coli gyrase, topoIV and human topoII, the activity of cystobactamides on the ATP-independent human topoisomerase I was tested as well.
The topo I reactions were titrated with varying concentrations of A-D and resolved by agarose gel electrophoresis. For IC50 determination the band intensity of the supercoiled plasmid was determined using Adobe Photoshop, plotted vs. [cystobactamide] and fitted using Hill's equation.
(§4) Following natural product concentrations were used in the assay:
Cystobactamide C: 300 μM; 30 μM; 3 μM
Control reactions were: no enzyme and a standard reaction in presence of 5% (v/v) DMSO. All reaction samples were equilibrated for 10 minutes at room-temperature in the absence of DNA. Then the relaxed plasmid was added to start the reaction
(§5) To determine IC50 values, the formation of supercoiled (gyrase) or relaxed (topoisomerase I, II IV) plasmid was quantified using Adobe Photoshop (Histogram mode). Plotting of these values versus the compound concentration yielded sigmoidal shaped curves, which were fitted using Hill's equation (Origin Pro 8.5). All determined IC50 values are the averages of three independent experiments.

[4] = test system: Burkholderia cenocepacia DSM-16553; experiment: Susceptibility testing, MIC microdilution; type: cell-based; settings: Burkholderia cenocepacia, DSM16553
Experimental: as §2, §3

[5] = test system: Pseudomonas aeruginosa ATCC27853; experiment: Susceptibility testing, MIC microdilution; type: cell-based
Experimental: as §2, §3

[6] = test system: Chromobacterium violaceum DSM-30191; experiment: Susceptibility testing, MIC microdilution; type: cell-based; settings: Chromobacterium violaceum, DSM30191
Experimental: as §2, §3

[7] = test system: Mycobacterium smegmatis mc^2155 ATCC700084; experiment: Susceptibility testing, MIC microdilution; type: cell-based; settings: Mycolicibacterium smegmatis, ATCC700084|MC^2155
Experimental: as §2, §3

[8] = test system: Escherichia coli DSM-1116; experiment: Susceptibility testing, MIC microdilution; type: cell-based; settings: Escherichia coli, DSM1116
Experimental: as §2, §3

[9] = test system: Enterobacter aerogenes DSM-30053; experiment: Susceptibility testing, MIC microdilution; type: cell-based; settings: Klebsiella aerogenes, DSM30053
Experimental: as §2, §3

[10] = test system: Escherichia coli DSM-26863 (tolC3); experiment: Susceptibility testing, MIC microdilution; type: cell-based; settings: Escherichia coli, DSM26863
Experimental: as §2, §3

[11] = test system: Streptococcus pneumoniae DSM-20566; experiment: Susceptibility testing, MIC microdilution; type: cell-based; settings: Streptococcus pneumoniae, DSM20566
Experimental: as §2, §3

[12] = target: T2, H. sapiens topoisomerase II (Homo sapiens, UniProt P11388); experiment: Topoisomerase II relaxation (inhibition) assay; type: biochemical; settings: for IC50: H. sapiens Topoisomerase II inhibition assay, read-out: IC50
T2 construct: purchased Inspiralis (Norwich, UK)
T2 sequence (P11388 whole entry): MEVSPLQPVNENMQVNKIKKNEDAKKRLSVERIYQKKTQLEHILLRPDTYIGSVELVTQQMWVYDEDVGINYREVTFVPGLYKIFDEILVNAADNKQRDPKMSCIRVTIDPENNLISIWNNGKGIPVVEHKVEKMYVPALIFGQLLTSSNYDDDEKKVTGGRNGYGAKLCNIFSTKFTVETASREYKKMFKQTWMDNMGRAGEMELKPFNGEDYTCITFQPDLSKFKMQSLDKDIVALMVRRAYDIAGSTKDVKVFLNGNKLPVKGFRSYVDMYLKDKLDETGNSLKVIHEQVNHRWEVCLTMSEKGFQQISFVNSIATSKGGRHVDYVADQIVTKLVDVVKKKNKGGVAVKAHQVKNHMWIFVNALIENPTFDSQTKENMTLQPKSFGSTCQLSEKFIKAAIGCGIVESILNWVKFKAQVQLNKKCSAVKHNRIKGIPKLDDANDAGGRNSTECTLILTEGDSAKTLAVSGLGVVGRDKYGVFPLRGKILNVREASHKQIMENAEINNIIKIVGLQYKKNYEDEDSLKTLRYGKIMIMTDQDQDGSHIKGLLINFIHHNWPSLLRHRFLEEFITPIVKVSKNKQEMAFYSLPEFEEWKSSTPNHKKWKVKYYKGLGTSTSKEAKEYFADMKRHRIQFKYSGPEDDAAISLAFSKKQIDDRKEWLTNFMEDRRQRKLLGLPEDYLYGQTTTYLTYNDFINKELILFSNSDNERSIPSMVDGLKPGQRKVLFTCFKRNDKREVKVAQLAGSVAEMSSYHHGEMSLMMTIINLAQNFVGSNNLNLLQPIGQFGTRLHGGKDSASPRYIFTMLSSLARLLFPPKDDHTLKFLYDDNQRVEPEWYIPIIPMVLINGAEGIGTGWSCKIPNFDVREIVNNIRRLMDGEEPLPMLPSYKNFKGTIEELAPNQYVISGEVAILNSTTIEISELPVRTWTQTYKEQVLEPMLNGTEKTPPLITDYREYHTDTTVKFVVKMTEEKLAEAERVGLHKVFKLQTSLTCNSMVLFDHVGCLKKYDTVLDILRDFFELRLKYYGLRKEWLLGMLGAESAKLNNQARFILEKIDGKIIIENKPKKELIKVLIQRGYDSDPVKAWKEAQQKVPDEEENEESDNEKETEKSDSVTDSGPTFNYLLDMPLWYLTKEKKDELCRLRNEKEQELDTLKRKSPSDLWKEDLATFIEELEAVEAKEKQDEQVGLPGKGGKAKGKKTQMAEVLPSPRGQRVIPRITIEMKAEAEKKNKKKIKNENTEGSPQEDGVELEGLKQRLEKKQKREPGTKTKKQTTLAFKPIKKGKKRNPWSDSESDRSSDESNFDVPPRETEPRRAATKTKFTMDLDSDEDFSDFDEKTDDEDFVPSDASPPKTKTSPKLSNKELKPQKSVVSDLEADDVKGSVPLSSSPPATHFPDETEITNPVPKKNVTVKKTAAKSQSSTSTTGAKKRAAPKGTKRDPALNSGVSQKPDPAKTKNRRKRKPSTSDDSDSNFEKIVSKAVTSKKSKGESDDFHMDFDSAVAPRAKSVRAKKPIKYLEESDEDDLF
Experimental: The topo II reactions were titrated with varying concentrations of A-D and resolved by agarose gel electrophoresis. For IC50 determination the band intensity of the supercoiled plasmid was determined using Adobe Photoshop, plotted vs. [cystobactamide] and fitted using Hill's equation.
as §4
Control reactions were: no enzyme and a standard reaction in presence of 5% (v/v) DMSO. All reaction samples were equilibrated for 10 minutes at room-temperature in the absence of DNA. Then the relaxed plasmid was added to start the reaction.
as §5

Row | Compound | MIC [1] [µg/mL] | MIC [2] [µg/mL] | IC50 [3] [µM] | MIC [4] [µg/mL] | MIC [5] [µg/mL] | MIC [6] [µg/mL] | MIC [7] [µg/mL] | MIC [8] [µg/mL] | MIC [9] [µg/mL] | MIC [10] [µg/mL] | MIC [11] [µg/mL] | IC50 [12] [µM] | concentration at which human topo II activity was inhibited (only the highest tested concentration) [12] [µM]
1 | CO[C@H](C(=O)Nc1ccc(C(=O)Nc2ccc(C(=O)Nc3ccc(C(=O)O)cc3OC(C)C)c(O)c2OC(C)C)cc1)[C@H](NC(=O)c1ccc(NC(=O)c2ccc([N+](=O)[O-])cc2)cc1)C(=O)O [cystobactamide A, Cystobactamide A] | 0.5 (≈ 0.543 µM) | 0.5 | ~1 | > 59 | > 59 | > 59 | > 59 | 0.9 (≈ 0.977 µM) | > 59 | 0.5 (≈ 0.543 µM) | 0.23 (≈ 0.25 µM) | > 160 | 815
2 | CC(C)Oc1cc(C(=O)O)ccc1NC(=O)c1ccc(NC(=O)c2ccc(N)cc2)c(OC(C)C)c1O [cystobactamide C, Cystobactamide C] | 8.1 (≈ 16 µM) | 8.1 | ~6 | > 65 | 65 (≈ 128 µM) | 16.3 (≈ 32.1 µM) | > 65 | 16.3 (≈ 32.1 µM) | > 33 | 4.1 (≈ 8.08 µM) | 8.1 (≈ 16 µM) | > 60 | 300
